Tests used:
Assay type in all cases: binding
[1] = biological target: T1, CXCR1 (Homo sapiens, UniProt P25024); test: NanoBRET screen HiBiT-CXCR1 in HEK293
T1 construct: purchased Promega (in-house HiBiT-GPCR construct library, NanoBRET)
T1 sequence (P25024 1-350): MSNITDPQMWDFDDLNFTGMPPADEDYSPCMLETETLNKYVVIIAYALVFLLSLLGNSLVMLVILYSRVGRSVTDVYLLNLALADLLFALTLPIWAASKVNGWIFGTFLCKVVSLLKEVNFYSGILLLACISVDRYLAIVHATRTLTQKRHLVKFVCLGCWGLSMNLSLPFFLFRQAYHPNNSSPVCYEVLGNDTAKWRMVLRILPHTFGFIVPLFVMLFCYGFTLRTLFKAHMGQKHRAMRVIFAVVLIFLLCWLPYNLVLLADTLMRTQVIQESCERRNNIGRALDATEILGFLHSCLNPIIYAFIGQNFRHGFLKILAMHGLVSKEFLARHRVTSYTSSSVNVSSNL
Method: (§1) Each tracer candidate was screened across the entire library of HiBiT-GPCR constructs using NanoBRET as the detection modality. As depicted in Figure 4A, the specificity of interactions was evaluated through decrease in BRET due to competitive displacement of a bound tracer by excess parental compound. Each tracer was analyzed for binding to each HiBiT-GPCR fusion in the absence and in the presence of competing parental compound. Briefly, HEK293 cells were transfected with HiBiT-GPCR constructs diluted into promoterless DNA to reduce expression and maximize translocation to the cell surface. Each tracer candidate was then screened at concentrations of 1 μM and 0.1 μM across cells expressing these fusions. Cells were treated for 1.5 h with tracer either alone or in the presence of 20 μM competing parental compound (i.e., control). BRET was measured upon addition of purified LgBiT and subsequent complementation with HiBiT genetically fused to a GPCR. The specificity of interactions was assessed through a decrease in BRET signal due to competitive displacement of the bound tracer. To further gauge the robustness of these interactions, the fold response over the control (i.e., BRETtracer/BRETcontrol) was calculated. We chose a 1.5-fold response, which translates to ≥7-fold signal over noise as the minimal threshold required to score an interaction as positive. […]. Below we highlight the screening results obtained for our exemplary fluorescent tracers based on Clozapine, Amitriptyline and AZD1283.
(§2) HiBiT-GPCR DNA constructs were diluted in 10 mM Tris pH 8 to a final concentration of 0.01 μg/μL, arrayed in 96-well plates and stored at −20 °C. For transfection, HEK293 cells were suspended in Opti-MEM (without phenol red) supplemented with 2% fetal bovine serum (Seradigm) and 100 units/mL penicillin–streptomycin (Gibco) at a final concentration of 220,000 cells/mL and dispensed into white 96-well plates at 90 μL/well. Subsequent transfections and screens were carried using an Agilent Bravo Automated Liquid Handling Platform. First, the 96-well HiBiT DNA arrays were diluted 25-fold in Opti-MEM (without serum or phenol red) to a final concentration of 0.0004 μg/μL and 20 μL of the diluted DNAs were transferred into new 96-well plates. Next, promoterless carrier DNA (1 μg/μL) was diluted 25-fold (0.04 μg/μL) and then dispensed into the diluted arrays at 20 μL/well. Following brief mixing, Viafect transfection reagent (Promega) diluted 16-fold into Opti-MEM was dispensed into the plates at 40 μL/well. After mixing by pipetting, plates were incubated for 10 min on the pipetting station deck. The DNA-transfection reagent complexes were then added to plates containing cells. To facilitate the screen, 10 μL of DNA-transfection reagent complexes were added in duplicates to the top 4 and bottom 4 rows, resulting in two identical 48-well arrays per plate. Plates with transfected cells were incubated for 18–20 h at 37 °C/5% CO2. A screen of each tracer across the entire library using two different concentrations requires duplicate plates of transfected cells. Depending on the number of tracers being screened, transfections can be scaled up using the same ratios. The next day, for each tracer, four 20× screening solutions in tracer dilution buffer (Promega) were prepared: two duplicates at final concentration of 20 μM and two duplicates at a final concentration of 2 μM. A competing unmodified compound was added to one of each duplicate at a final concentration of 400 μM. The four resulting solutions were diluted 4-fold in Opti-MEM without serum or phenol red to generate 5× solutions (5 µM and 0.5 µM tracer +/− 100 μM competing compound). To screen the library, a BioTek MultiFlo FX liquid dispenser was used to dispense 22.5 µL of tracer solution to the top 4 rows and 22.5 µL tracer + competing compound solution to the 4 bottom rows. Plates were briefly mixed on an orbital shaker and incubated for 1.5 h at room temperature. […]

[2] = biological target: T2, HTR1B (Homo sapiens, UniProt P28222); test: NanoBRET screen HiBiT-HTR1B in HEK293
T2 construct: purchased Promega (in-house HiBiT-GPCR construct library, NanoBRET)
Method: as §1, §2

[3] = biological target: T3, LHCGR (Homo sapiens, UniProt P22888); test: NanoBRET screen HiBiT-LHCGR in HEK293; conditions: LHCGR
T3 construct: purchased Promega (in-house HiBiT-GPCR construct library, NanoBRET)
Method: as §1, §2

[4] = biological target: T4, GRM8 (Homo sapiens, UniProt O00222); test: NanoBRET screen HiBiT-GRM8 in HEK293; conditions: GRM8
T4 construct: purchased Promega (in-house HiBiT-GPCR construct library, NanoBRET)
Method: as §1, §2

[5] = biological target: T5, CCR1 (Homo sapiens, UniProt P32246); test: NanoBRET screen HiBiT-CCR1 in HEK293
T5 construct: purchased Promega (in-house HiBiT-GPCR construct library, NanoBRET)
T5 sequence (P32246 1-355): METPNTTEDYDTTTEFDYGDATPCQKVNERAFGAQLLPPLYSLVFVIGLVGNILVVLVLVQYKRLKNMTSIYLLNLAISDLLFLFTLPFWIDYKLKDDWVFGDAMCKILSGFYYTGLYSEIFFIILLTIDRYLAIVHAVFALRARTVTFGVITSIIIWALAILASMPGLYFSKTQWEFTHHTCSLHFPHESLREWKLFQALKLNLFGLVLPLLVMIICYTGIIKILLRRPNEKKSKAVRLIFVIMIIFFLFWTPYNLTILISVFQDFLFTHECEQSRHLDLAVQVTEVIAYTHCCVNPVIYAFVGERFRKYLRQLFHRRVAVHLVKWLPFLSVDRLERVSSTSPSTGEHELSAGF
Method: as §1, §2

[6] = biological target: T6, XCR1 (Homo sapiens, UniProt P46094); test: NanoBRET screen HiBiT-XCR1 in HEK293
T6 construct: purchased Promega (in-house HiBiT-GPCR construct library, NanoBRET)
T6 sequence (P46094 1-333): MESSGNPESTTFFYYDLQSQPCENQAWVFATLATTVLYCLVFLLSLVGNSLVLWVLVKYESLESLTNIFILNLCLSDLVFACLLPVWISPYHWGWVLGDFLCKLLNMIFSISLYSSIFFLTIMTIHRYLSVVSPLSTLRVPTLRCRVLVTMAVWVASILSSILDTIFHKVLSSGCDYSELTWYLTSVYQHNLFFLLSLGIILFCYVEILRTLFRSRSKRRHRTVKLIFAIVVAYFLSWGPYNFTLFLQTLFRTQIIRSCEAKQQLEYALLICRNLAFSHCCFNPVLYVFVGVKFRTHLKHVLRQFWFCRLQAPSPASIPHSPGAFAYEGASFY
Method: as §1, §2

T2 sequence (P28222 whole entry): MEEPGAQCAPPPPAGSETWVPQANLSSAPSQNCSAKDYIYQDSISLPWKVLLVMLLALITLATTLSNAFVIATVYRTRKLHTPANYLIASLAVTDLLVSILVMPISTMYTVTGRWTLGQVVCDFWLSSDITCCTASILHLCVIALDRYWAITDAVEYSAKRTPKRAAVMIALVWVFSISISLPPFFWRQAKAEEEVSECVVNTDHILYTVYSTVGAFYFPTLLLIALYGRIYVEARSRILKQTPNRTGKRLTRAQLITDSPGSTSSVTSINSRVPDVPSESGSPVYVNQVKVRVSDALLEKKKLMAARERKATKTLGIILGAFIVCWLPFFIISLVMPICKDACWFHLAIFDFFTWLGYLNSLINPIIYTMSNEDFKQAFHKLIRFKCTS
T3 sequence (P22888 27-699): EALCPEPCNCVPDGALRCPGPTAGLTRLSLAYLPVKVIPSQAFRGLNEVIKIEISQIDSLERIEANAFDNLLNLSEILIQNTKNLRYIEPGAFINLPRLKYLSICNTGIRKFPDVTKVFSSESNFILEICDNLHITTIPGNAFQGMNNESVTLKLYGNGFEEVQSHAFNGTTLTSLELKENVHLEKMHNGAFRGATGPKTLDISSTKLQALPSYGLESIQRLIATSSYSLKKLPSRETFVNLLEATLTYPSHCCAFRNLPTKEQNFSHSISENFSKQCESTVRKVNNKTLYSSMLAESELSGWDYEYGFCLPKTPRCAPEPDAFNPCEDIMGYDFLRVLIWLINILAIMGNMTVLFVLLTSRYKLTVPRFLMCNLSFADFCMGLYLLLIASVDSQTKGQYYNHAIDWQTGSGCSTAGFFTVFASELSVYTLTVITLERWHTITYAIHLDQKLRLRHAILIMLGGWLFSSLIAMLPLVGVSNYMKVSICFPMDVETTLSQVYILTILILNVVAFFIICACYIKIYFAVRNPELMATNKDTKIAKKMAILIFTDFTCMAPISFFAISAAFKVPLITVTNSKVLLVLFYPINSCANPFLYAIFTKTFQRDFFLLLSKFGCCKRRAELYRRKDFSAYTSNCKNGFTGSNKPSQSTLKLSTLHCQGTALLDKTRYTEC
T4 sequence (O00222 34-908): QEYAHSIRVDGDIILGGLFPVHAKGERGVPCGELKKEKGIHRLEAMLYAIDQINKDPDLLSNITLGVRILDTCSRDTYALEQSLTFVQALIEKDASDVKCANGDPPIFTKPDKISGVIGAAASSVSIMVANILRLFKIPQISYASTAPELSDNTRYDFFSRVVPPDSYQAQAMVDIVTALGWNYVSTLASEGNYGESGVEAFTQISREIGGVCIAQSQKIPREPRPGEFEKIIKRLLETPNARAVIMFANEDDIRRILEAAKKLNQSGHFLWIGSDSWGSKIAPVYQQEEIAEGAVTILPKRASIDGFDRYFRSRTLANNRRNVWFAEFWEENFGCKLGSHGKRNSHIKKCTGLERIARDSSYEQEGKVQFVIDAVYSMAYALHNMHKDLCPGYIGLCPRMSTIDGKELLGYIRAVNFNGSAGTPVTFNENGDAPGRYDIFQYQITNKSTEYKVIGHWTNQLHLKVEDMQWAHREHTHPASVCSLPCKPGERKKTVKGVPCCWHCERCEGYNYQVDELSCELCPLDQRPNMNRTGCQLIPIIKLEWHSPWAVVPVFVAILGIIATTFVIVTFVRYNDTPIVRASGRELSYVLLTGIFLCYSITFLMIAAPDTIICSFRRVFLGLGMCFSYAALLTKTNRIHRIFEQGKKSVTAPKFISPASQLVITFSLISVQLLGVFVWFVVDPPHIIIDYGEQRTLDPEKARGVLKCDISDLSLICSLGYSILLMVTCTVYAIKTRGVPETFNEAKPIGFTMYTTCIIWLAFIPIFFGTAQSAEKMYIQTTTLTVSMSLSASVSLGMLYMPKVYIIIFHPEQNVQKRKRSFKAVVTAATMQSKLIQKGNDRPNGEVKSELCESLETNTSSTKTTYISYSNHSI

| SMILES | NanoBRET Fold Response ([1]; CXCR1, tracer 0.1μM) | NanoBRET Fold Response ([1]; CXCR1, tracer 1μM) | NanoBRET Fold Response ([2]; HTR1B, tracer 0.1μM) | NanoBRET Fold Response ([2]; HTR1B, tracer 1μM) | NanoBRET Fold Response ([3]; tracer 0.1μM) | NanoBRET Fold Response ([3]; tracer 1μM) | NanoBRET Fold Response ([4]; tracer 0.1μM) | NanoBRET Fold Response ([4]; tracer 1μM) | NanoBRET Fold Response ([5]; CCR1, tracer 0.1μM) | NanoBRET Fold Response ([5]; CCR1, tracer 1μM) | NanoBRET Fold Response ([6]; XCR1, tracer 0.1μM) | NanoBRET Fold Response ([6]; XCR1, tracer 1μM) | NanoBRET Fold Response ([1]; tracer at 1μM) | NanoBRET Fold Response ([5]; tracer at 1μM) | NanoBRET Fold Response ([6]; tracer at 1μM) | other results |
| --- | --- | --- | --- | --- | --- | --- | --- | --- | --- | --- | --- | --- | --- | --- | --- | --- |
| O=C(CCOCCOCCOCCOCCNC(=O)CCc1ccc2n1[B-](F)(F)[N+]1=C(c3ccc[nH]3)C=CC1=C2)NCCCN1CCN(C2=Nc3ccccc3Oc3ccc(Cl)cc32)CC1 [Loxapine-a-2-NB590] | 1.02 | 0.94 | 2.42 | 2.84 | 0.97 | 1.15 | 1.01 | 1.07 | 1.00 | 0.99 | 0.44 | 0.91 | – | – | – | – |
| CCCn1c(=O)c2[nH]c(-c3ccc(OCC(=O)NCCNC(=O)CCOCCNC(=O)c4ccc(CNC(=O)CCc5ccc6n5[B-](F)(F)[N+]5=C(c7ccc[nH]7)C=CC5=C6)cc4)cc3)nc2n(CCC)c1=O [XAC-3-NB590] | 1.05 | 0.91 | 0.66 | 1.24 | 1.01 | 1.00 | 0.99 | 1.04 | 0.83 | 1.09 | 0.87 | 0.98 | – | – | – | – |
| CN(C)CCC=C1c2ccccc2CCc2ccc(C(=O)NCCNC(=O)CCOCCOCCOCCOCCNC(=O)CCc3ccc4n3[B-](F)(F)[N+]3=C(c5ccc[nH]5)C=CC3=C4)cc21 [Amitriptyline-a-2-NB590] | – | – | – | – | – | – | – | – | – | – | – | – | 0.97 | 1.07 | 0.96 | NanoBRET Fold Response ([1]; tracer at 0.1μM): 1.05; NanoBRET Fold Response ([2]; tracer at 0.1μM): 0.98; NanoBRET Fold Response ([5]; tracer at 0.1μM): 0.99; NanoBRET Fold Response ([6]; tracer at 0.1μM): 1.05 |
| COc1ccccc1N1CCN(CCCCN2C(=O)c3ccc(CNC(=O)CCOCCOCCOCCOCCNC(=O)CCc4ccc5n4[B-](F)(F)[N+]4=C(c6ccc[nH]6)C=CC4=C5)cc3C2=O)CC1 [NAN-190-2-NB590] | 0.97 | 1.05 | 1.73 | 1.25 | 0.98 | 1.04 | 1.02 | – | 1.01 | 1.04 | 1.44 | – | – | – | – | – |
| CN(CCC=C1c2ccccc2CCc2ccccc21)C(=O)CCOCCOCCOCCOCCNC(=O)CCc1ccc2n1[B-](F)(F)[N+]1=C(c3ccc[nH]3)C=CC1=C2 [Amitriptyline-e-2-NB590] | – | – | – | – | – | – | – | – | – | – | – | – | 0.93 | 0.99 | 0.99 | NanoBRET Fold Response ([2]; tracer at 1μM): 1.01 |
| N#CN/C(=N\CCNC(=O)c1ccc(N)cc1)NCCCOc1cccc(CN2CCCCC2)c1 [Aminopotentidine (unmodified)] | – | – | – | – | – | – | – | – | – | – | – | – | – | – | – | NanoBRET Fold Response ([2]; HTR1B, other tracers/Aminopotentidine (unmodified), 0.1μM): 1.50; NanoBRET Fold Response ([2]; HTR1B, other tracers/Aminopotentidine (unmodified), 1μM): 1.48 |

Source: paper PMC8151276, “An Integrated Approach toward NanoBRET Tracers for Analysis of GPCR Ligand Engagement” (Molecules, 2021)
